Experimental data reported in patent US12029751B2, “Therapeutic agent for nervous system disease” (OSAKA UNIVERSITY, priority 2017, dated 2024).

Assays:
[1] = tested on: Akt-mTOR pathway; assay: Western blot of Akt, 4EBP1 and S6K phosphorylation (mechanism of macrophage induction); format: cell-based, mouse; conditions: 30 minutes
Procedure: The J774A.1 cells (Example 5-1) were seeded on a dish having a diameter of 6 cm. After 4 days, proteins were collected using a cell lysis buffer containing a cocktail of protease inhibitors. The protein concentration was measured by BCA assay. Then, 50 μg of each sample was subjected to SDS-PAGE, and the electrophoresed proteins were transferred to a polyvinylidene difluoride membrane. The membrane was blocked with a blocking buffer for 1 hour, and then the proteins were allowed to react with primary antibodies at 4° C. overnight. The proteins were further allowed to react with a secondary antibody at room temperature for 1 hour and detected using ECL Western Blotting Detection System. To detect the M1 markers iNOS and IL-1β, lipopolysaccharide (LPS) (100 ng/ml) and methylcobalamin were added at 24 hours before collecting the proteins. To detect the M2 markers Arg1 and CD206, IL-4 (20 ng/ml) and methylcobalamin were added at 72 hours before collecting the proteins.
The mechanism of the macrophage induction (Example 5) by methylcobalamin was analyzed. Specifically, the analysis was carried out as follows. At 30 minutes after IL-4 and methylcobalamin (100 nM and 1 mM) were added, activation of Akt, 4EBP1, and S6K in the Akt-mTOR pathway (one of the major signaling pathways that induce M2 gene expression) was evaluated by Western blot. In the pathway, Akt phosphorylation occurs in response to an upstream signal, and 4EBP1 phosphorylation and S6K phosphorylation further occur through mTORC1 in the downstream. The S6K phosphorylation provides a negative feedback to the upstream of the signaling pathway. Western blot was performed as in Example 5-2, except that IL-4 (20 ng/ml), methylcobalamin, and RAD001 (200 nM) were added at 30 minutes before the proteins were collected, and the primary antibodies for detection were changed.

[2] = tested on: microglia cell line (6-3 cells); assay: Western blot of M1 markers (iNOS, IL-1β) and M2 markers (Arg1, CD206) in microglia; format: cell-based
Procedure: To a microglia cell line (6-3 cells), LPS (100 ng/ml) and an anti-inflammatory cytokine IL-4 (20 ng/ml) were added. Methylcobalamin solutions each having a different concentration ranging from 1 nM to 1 mM were added to the mixture, and proteins were recovered from each mixture at 1 and 3 days after the addition. Electrophoresis and transfer to a membrane were performed, the membrane was blocked, and the cells were allowed to react with each of primary antibodies against M1 markers (iNOS and IL-1β) and M2 markers (Arg1 and CD206) at 4° C. overnight. Cells were allowed to react with a secondary antibody at room temperature for 1 hour, and bands were detected using a detector.
The primary antibodies used were an anti-iNOS antibody, an anti-IL-1β antibody, an anti-Arg1 antibody, and an anti-CD206 (a mannose receptor) antibody. The secondary antibody used was an Anti-Rabbit IgG, HRP-Linked Whole Ab Sheep.

[3] = tested on: cerebral cortical neurons; assay: LDH assay, necrosis inhibiting effect under oxygen-glucose deprivation (OGD) stress; format: cell-based, rat; conditions: 10 μM methylcobalamin 30 minutes before OGD stress (3 hours), measured after 24 hours
From the text: Cerebral cortical neurons were collected and cultured by a conventional method. Cerebral cortex was dissected from a fetus of a Sprague-Dawley (SD) rat (18th day of pregnancy) and recovered in ice-cooled Dulbecco's Modified Eagle Medium (DMEM) containing 10% fetal bovine serum (FBS) and 1% penicillin/streptomycin. The pia mater and blood vessels were removed, and the remaining cerebral cortex was transferred to DMEM (containing 1% penicillin/streptomycin and no FBS) and cut into small pieces having a size of 1 mm by surgical scissors. Papain (final concentration, 2 mg/ml) was added to the cell mixture, and the mixture was allowed to react at 37° C. for 30 minutes. DNase I (70 U/ml) was added to the reaction mixture and reaction was carried out for 30 seconds. Then, DMEM containing 10% FBS and 1% penicillin/streptomycin was added to terminate the reaction. […]
To the cerebral cortical neurons (Example 1-1) cultured on a PLL-coated 6-well chamber slide, 10 μM methylcobalamin was added at 30 minutes before exposure to oxygen-glucose deprivation (OGD) stress. […] After 24 hours, the supernatant was collected, and LDH activity was measured using Cytotoxicity Detection Kit^PLUS (SIGMA). LDH activities of the control group and the methylcobalamin addition group were calculated as proportions (%) with respect to the LDH activity of the high control.

[4] = IL-4 20 ng/ml + MeCbl 100 nM, listed as methylcobalamin
[5] = IL-4 20 ng/ml + MeCbl 1 mM + RAD001 (200 nM)
[6] = IL-4 20 ng/ml + MeCbl 1 mM, listed as methylcobalamin

## C/C1=C2/[N-][C@H]([C@H](CC(N)=O)[C@@]2(C)CCC(=O)NC[C@@H](C)OP(=O)([O-])O[C@H]2[C@@H](O)[C@@H](n3cnc4cc(C)c(C)cc43)O[C@@H]2CO)[C@]2(C)N=C(/C(C)=C3N=C(/C=C4N=C1[C@@H](CCC(N)=O)C\4(C)C)[C@@H](CCC(N)=O)[C@]\3(C)CC(N)=O)[C@@H](CCC(N)=O)[C@]2(C)CC(N)=O.[CH3-].[Co+3] [MeCbl, methylcobalamin]
[1]; IL-4 20 ng/ml + MeCbl 100 nM
  p-4EBP1/4EBP1: 4.94
  p-Akt/Akt: 3.58
  p-S6K/S6K: 2.65
[1]; [4]
  p-4EBP1/4EBP1: enhanced
  p-S6K/S6K: enhanced
[1]; [5]
  p-4EBP1/4EBP1: 2.78
  p-Akt/Akt: 3.78
  p-S6K/S6K: 0.33
[1]; IL-4 20 ng/ml + MeCbl 1 mM
  p-4EBP1/4EBP1: 6.08
  p-Akt/Akt: 2.59
  p-S6K/S6K: 3.12
[1]; [6]
  p-4EBP1/4EBP1: activated
  p-Akt/Akt: decreased
  p-S6K/S6K: activated
[2]; IL-4 + 1 nM to 10 μM methylcobalamin
  amount of Arg1 protein as compared with IL-4 alone: significantly increased
[2]; IL-4 + 10 nM to 100 nM methylcobalamin
  amount of CD206 as compared with IL-4 alone: significantly increased
[2]; MeCbl 1 nM
  Arg1 (amount of protein, IL-4 alone = 1.00): 1.78
  CD206 (amount of protein, IL-4 alone = 1.00): 1.11
  IL-1β (amount of protein, LPS alone = 1.00): 1.02
  iNOS (amount of protein, LPS alone = 1.00): 0.87
[2]; MeCbl 10 nM
  Arg1 (amount of protein, IL-4 alone = 1.00): 2.03
  CD206 (amount of protein, IL-4 alone = 1.00): 1.42
  IL-1β (amount of protein, LPS alone = 1.00): 0.95
  iNOS (amount of protein, LPS alone = 1.00): 0.74
[2]; MeCbl 100 nM
  Arg1 (amount of protein, IL-4 alone = 1.00): 2.72
  CD206 (amount of protein, IL-4 alone = 1.00): 1.39
  IL-1β (amount of protein, LPS alone = 1.00): 0.83
  iNOS (amount of protein, LPS alone = 1.00): 0.76
[2]; MeCbl 1 μM
  Arg1 (amount of protein, IL-4 alone = 1.00): 2.20
  CD206 (amount of protein, IL-4 alone = 1.00): 1.17
  IL-1β (amount of protein, LPS alone = 1.00): 0.72
  iNOS (amount of protein, LPS alone = 1.00): 0.61
[2]; MeCbl 10 μM
  Arg1 (amount of protein, IL-4 alone = 1.00): 2.08
  CD206 (amount of protein, IL-4 alone = 1.00): 1.17
  IL-1β (amount of protein, LPS alone = 1.00): 0.58
  iNOS (amount of protein, LPS alone = 1.00): 0.46
[2]; MeCbl 100 μM
  Arg1 (amount of protein, IL-4 alone = 1.00): 1.37
  CD206 (amount of protein, IL-4 alone = 1.00): 1.24
  IL-1β (amount of protein, LPS alone = 1.00): 0.53
  iNOS (amount of protein, LPS alone = 1.00): 0.36
[2]; MeCbl 1 mM
  Arg1 (amount of protein, IL-4 alone = 1.00): 0.59
  CD206 (amount of protein, IL-4 alone = 1.00): 1.11
  IL-1β (amount of protein, LPS alone = 1.00): 0.32
  iNOS (amount of protein, LPS alone = 1.00): 0.05
[2]; LPS + at least 10 nM methylcobalamin
  amount of iNOS protein as compared with LPS alone: significantly decreased
[2]; LPS + at least 1 μM methylcobalamin
  amount of IL-1β protein as compared with LPS alone: significantly decreased
[3]
  LDH activity as proportion with respect to the high control: 1.3%
[3]; listed as methylcobalamin
  LDH activity as proportion with respect to the high control: significantly decreased
